Reference: PMC3569039 (Bioorganic & medicinal chemistry letters, 2011)

Tested on: HeLa cells

## Fluo-3
  cellular debris in treated cells (apparent cytotoxicity): significant amount of cellular debris
